Here are results for 2 compounds from patent publication US8912315B2, “Purkinje cell-tropic viral vector” (Japan Science and Technology Agency, priority 2006, dated 2014).

The experiment relates to HeLa cells. Type of experiment: cell-based. As to conditions: viruses generated in HEK293T cells with the named serum or protease inhibitor, Table 3; TU/ml.

Consider “TIMP-1: metallo proteinase inhibitor added to medium during virus generation”, for which the “Titer × 10^9” value is 6.3 × 10^9.

Take `COc1ccc(S(=O)(=O)N(Cc2cccnc2)[C@@H](C(=O)NO)C(C)C)cc1` [CGS 27023A]: the “Titer × 10^9” value is reported as 3.4 ± 1.4 × 10^9.
